From patent publication US6906094B2, “1,2,4-tribsubstituted benzenes as inhibitors of 15-lipoxygenase” (Warner-Lambert Company, priority 2000, dated 2005)

Key:
human 15-LO = biological target: T1, human 15-LO (Homo sapiens, UniProt P16050); assay: Human Lysate 15-LO Assay (HUM15LO); assay type: biochemical; conditions: recombinant human 15-LO, 174 μM linoleic acid, 15 minutes at 4° C., 13-HODE quantitated
T1 construct: made in house; host or cells: Sf9 insect cells (baculovirus, Bac-to-Bac)
T1 sequence (P16050 1-662): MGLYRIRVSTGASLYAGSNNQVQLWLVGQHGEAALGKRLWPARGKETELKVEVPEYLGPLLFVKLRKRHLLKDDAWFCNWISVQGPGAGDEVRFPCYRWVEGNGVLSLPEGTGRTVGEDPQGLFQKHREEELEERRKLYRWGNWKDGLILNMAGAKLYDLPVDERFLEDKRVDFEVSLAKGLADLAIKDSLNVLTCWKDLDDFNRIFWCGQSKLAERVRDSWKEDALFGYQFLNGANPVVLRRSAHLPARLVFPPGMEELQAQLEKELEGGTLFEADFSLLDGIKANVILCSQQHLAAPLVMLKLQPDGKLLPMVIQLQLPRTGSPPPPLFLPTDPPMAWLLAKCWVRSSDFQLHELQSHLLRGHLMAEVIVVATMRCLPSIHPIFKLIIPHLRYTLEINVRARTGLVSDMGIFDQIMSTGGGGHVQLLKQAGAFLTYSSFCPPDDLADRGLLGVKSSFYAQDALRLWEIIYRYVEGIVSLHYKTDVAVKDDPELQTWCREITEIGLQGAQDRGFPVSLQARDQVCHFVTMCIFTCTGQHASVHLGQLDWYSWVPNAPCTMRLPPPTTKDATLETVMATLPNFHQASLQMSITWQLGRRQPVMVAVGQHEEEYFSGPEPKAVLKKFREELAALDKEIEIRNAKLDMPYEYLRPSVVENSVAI
Experimental: In the HUM15LO assay, a test compound of the present invention was incubated with 15-LO enzyme in the presence of the linoleic acid substrate. For example, a known amount of a test compound of the present invention, 100 μL of human 15-LO, and 174 μM linoleic acid in PBS containing 0.2% sodium cholate were incubated for 15 minutes at 4° C. The reaction was stopped with 100 μL of mobile phase and 10 μL of triethyl phosphite. […] 13-HODE was quantitated by comparing peak areas of individual samples with those from a standard curve generated using authentic 13-HODE. The test reaction is compared to a control reaction, which is identical to the test reaction except no test compound of the present invention is present Percent inhibition is calculated as the amount of 13-HODE produced by the test reaction divided by the amount of 13-HODE produced by the control reaction, expressed as a percent.
Human 15-LO was generated in a recombinant 15-lipoxygenase bacculovirus expression system, using Gibco/BRL/Life Technologies' Bac-to-Bac expression reagents; T4 DNA ligase, Kanamycin, Gentamicin, tetracycline, penicillin, streptomycin, Bluo-gal, IPTG, DH10Bac competent cells, SOC, LB medium, Sf-900 II SFM media, Sf9 insect cells, Cell Fectin, and EcoRI, BamHI and KpnI restriction enzymes.

[1] = biological target: T2, rabbit reticulocyte 15-LO (Oryctolagus cuniculus, UniProt P12530); assay: Rabbit Reticulocyte 15-LO Assay (H15LO); assay type: biochemical; conditions: 2 U rabbit reticulocyte 15-LO, 174 μM linoleic acid, 15 minutes at 4° C., 13-HODE quantitated
T2 construct: 15-LO is obtained from phenylhydrazine-treated rabbits and purified according to the method of Rapoport; from tissue; host or cells: reticulocytes of phenylhydrazine-treated rabbits
T2 sequence (P12530 1-663): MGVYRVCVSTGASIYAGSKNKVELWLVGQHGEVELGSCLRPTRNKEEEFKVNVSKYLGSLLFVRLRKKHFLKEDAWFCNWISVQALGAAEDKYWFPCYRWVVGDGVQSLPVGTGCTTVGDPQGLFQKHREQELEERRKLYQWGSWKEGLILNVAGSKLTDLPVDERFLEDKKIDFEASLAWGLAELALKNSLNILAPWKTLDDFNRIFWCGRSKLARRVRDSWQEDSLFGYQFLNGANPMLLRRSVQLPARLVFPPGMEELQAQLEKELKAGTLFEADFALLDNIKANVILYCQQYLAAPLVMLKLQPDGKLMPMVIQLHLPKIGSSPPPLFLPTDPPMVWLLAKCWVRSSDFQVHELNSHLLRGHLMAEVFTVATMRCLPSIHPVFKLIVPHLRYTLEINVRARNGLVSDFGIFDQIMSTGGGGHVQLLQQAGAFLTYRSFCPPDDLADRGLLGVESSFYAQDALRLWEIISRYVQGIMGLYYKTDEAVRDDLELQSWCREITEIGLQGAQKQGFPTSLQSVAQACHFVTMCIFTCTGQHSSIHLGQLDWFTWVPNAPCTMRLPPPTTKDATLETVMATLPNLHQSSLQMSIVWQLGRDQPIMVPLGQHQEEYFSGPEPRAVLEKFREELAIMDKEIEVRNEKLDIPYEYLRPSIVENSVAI
Experimental: In the H15LO assay, a test compound was incubated with 15-LO enzyme in the presence of the linoleic acid substrate. For example, 2 units (U) of rabbit reticulocyte 15-LO and 174 μM linoleic acid were incubated with a known amount of a test compound of the present invention for 15 minutes at 4° C. The total reaction volume was 100 μL in phosphate buffer saline (PBS) containing 0.2% sodium cholate. The reaction was stopped with 100 μL of mobile phase and […] of triethyl phosphite. […] 13-HODE was quantitated by comparing peak areas of individual samples with those from a standard curve generated using authentic 13-HODE.
15-LO is obtained from phenylhydrazine-treated rabbits and purified according to the method of Rapoport (Rapoport et al., European Journal of Biochemistry, 1979;96:545-561).

| Compound | IC50 (human 15-LO) [nM] | IC50 [1] [nM] |
| --- | --- | --- |
| CCCCCCCCCCCCOC(=O)NS(=O)(=O)Nc1cc(-c2cc3cc(F)c(F)cc3[nH]2)ccc1OC [Example 1, Carbamic Acid, [[[5-(5,6-difluoro-IH-indol-2-yl)-2-methoxyphenyl]amino]-sulfonyl]-, Dodecyl Ester] | 6 | 17 |
| COc1ccc(C(=O)Nc2ccc(F)c(F)c2)cc1NS(=O)(=O)NC(=O)OCCN1CCOCC1 [Example 2, Carbamic Acid, [[[5[[(3,4-difluorophenyl)amino]carbonyl]-2-methoxyphenyl]-amino]sulfonyl]-, 2-(4morpholinyl)ethyl ester] | 384 |  |
| COc1ccc(C(=O)Nc2ccc(F)c(F)c2)cc1NS(=O)(=O)NC(=O)OCCCN(C)C [Example 3, Carbamic Acid, [[(5-[[(3,4-diflu rophenyl)amino]carbonyl]-2-methoxyphenyl]amino]sulfonyl]-, 3-(dimethylamino)propyl Ester] | 408 |  |
| COc1ccc(C(=O)Nc2ccc(F)c(F)c2)cc1NS(=O)(=O)NC(=O)OCCN1CCCC1 [Example 4, Carbamic Acid, [[[5-[[(3,4-difluorophenyl)amino]carbonyl]-2-methoxyphenyl]amino]-suffonyl]-, 2-(1-pyrrolidinyl)ethyl ester] | 144 |  |
| COc1ccc(C(=O)Nc2ccc(F)c(F)c2)cc1NS(=O)(=O)NC(=O)OCCN(C)C [Example 5, Carbamic Acid, [[[5-[[(3,4-difluorophenyl)amino]carbonyl]-2-methoxyphenyl]amino]sulfonyl]-, 2-(dimethylamino)ethyl ester] | 240 |  |
| COc1ccc(C(=O)Nc2ccc(F)c(F)c2)cc1NS(=O)(=O)NC(=O)OCCc1cccs1 [Example 7, Carbamic Acid, [[[5-[[(3,4-difluorophenyl)amino]carbonyl]-2-methoxyphenyl]amino]sulfonyl]-, 2-(2-thienyl)ethyl ester] | 79 |  |
| CCS(=O)(=O)CCOC(=O)NS(=O)(=O)Nc1cc(C(=O)Nc2ccc(F)c(F)c2)ccc1OC [Example 8, Carbamic Acid, [[[5-[[(3,4-difluorophenyl)amino]carbonyl]-2-methoxyphenyl]amino]sulfonyl]-, 2-(ethylsulfonyl)ethyl ester] | 312 |  |
| COc1ccc(C(=O)Nc2ccc(F)c(F)c2)cc1NS(=O)(=O)NC(=O)OCCCBr [Example 9, Carbamic Acid, [[[5-[[(3,4-difluorophenyl)amino]carbonyl]-2-methoxyphenyl]amino]sulfonyl]-, 3-bromopropyl ester] | 154 |  |
| COc1ccc(-c2cc3cc(F)c(F)cc3[nH]2)cc1NS(=O)(=O)N(C)C(=O)OCCCOCc1ccccc1 [Example 13, Carbamic Acid, [[[5-(5,6-difluoro-IH-indol-2-yl)-2-methoxyphenyl]amino]-sulfonyl]methyl-, 3(phenylmethoxy)propyl ester] | 30 | 12 |
| COc1ccc(-c2cc3cc(F)c(F)cc3[nH]2)cc1NS(=O)(=O)NC(=O)OCC(=O)OCc1ccccc1 [Example 16, Acetic Acid, [[[[[[5-(5,6-difluoro-IH-indol-2-yl)-2-methoxyphenyl]amino]-sulfonyl]amino]carbonyl]oxy]-, phenylmethyl ester] | 10 | 2 |
| COc1ccc(C(=O)Nc2ccc(F)c(F)c2)cc1NS(=O)(=O)NC(=O)Nc1cc(Cl)cc(Cl)c1 [Example 17, Benzamide, 3-[[[[[(3,5-dichlorophenyl)amino]-carbonyl]amino]sulfonyl]-amino]-N-(3,4-difluorophenyl)-4-methoxy] | 37 | 10 |
| COc1ccc(C(=O)Nc2ccc(F)c(F)c2)cc1NS(=O)(=O)NC(=O)Nc1ccccc1 [Example 18, Benzamide, N-(3,4-difluorophenyl)-4-methoxy-3-[[[[(phenylamino)carbonyl]-amino]sulfonyl]amino]] | 142 |  |
| CCOC(=O)NS(=O)(=O)Nc1cc(C(=O)Nc2ccc(F)c(F)c2)ccc1OC [Example 19, Carbamic Acid, [[[5-[[(3,4-difluorophenyl)amino]carbonyl]-2-methoxyphenyl]amino]sulfonyl]-, Ethyl Ester] | 339 |  |
| COc1ccc(NS(=O)(=O)NC(=O)Nc2cc(C(=O)Nc3ccc(F)c(F)c3)ccc2OC)cc1 [Example 20, Benzamide, N-(3,4-difluorophenyl)-4-methoxy-3-[[[[[(4-methoxyphenyl)-amino]sulfonyl]amino]carbonyl]amino]] | 1050 |  |
| CCOC(=O)NS(=O)(=O)Nc1cc(-c2cc3ccccc3[nH]2)ccc1OC [Example 26, Carbamic Acid, [[[5-(IH-indol-2-yl)-2-methoxyphenyl]amino]sulfonyl]-, Ethyl Ester] | 630 |  |
| COc1ccc(-c2cc3cc(F)c(F)cc3[nH]2)cc1NS(=O)(=O)NC(=O)OC(C)(C)C [Example 53, Carbamic Acid, [[[5-(5,6-difluoro-indol-2-yl)-2-methoxyphenyl]amino]-sulfonyl]-, 1,1-dimethylethyl ester] |  | 23 |
| COc1ccc(C(=O)Nc2ccc(F)c(F)c2)cc1NS(=O)(=O)NC(=O)Nc1cccc([N+](=O)[O-])c1 [Example 60, Benzamide, N-(3,4-difluorophenyl)-4-methoxy-3-[[[[[(3-nitrophenyl) -amino]carbonyl]amino]sulfonyl]amino]] | 25 |  |
| COc1ccc(C(=O)Nc2ccc(F)c(F)c2)cc1NS(=O)(=O)NC(=O)Nc1cc(C(F)(F)F)cc(C(F)(F)F)c1 [Example 62, Benzamide, 3-[[[[[[3,5-bis(trifluoromethyl)phenyl]amino]-carbonyl]amino]-sulfonyl]amino]-N-(3,4-difluorophenyl)-4-methoxy] | 173 |  |
| COc1ccc(C(=O)Nc2ccc(F)c(F)c2)cc1NS(=O)(=O)NC(=O)Nc1ccc(N)cc1 [Example 63, Benzamide, 3-[[[[[(4-aminophenyl)amino]carbonyl]amino]sulfonyl]amino]-N-(3,4-difluorophenyl)-4-methoxy-, mono(trifluoroacetate)] | 214 |  |
| COc1ccc(C(=O)Nc2ccc(F)c(F)c2)cc1NS(=O)(=O)NC(=O)Nc1ccccc1 [Example 67, Benzamide, N-(3,4-difluorophenyl)-4-methoxy-3-[[[[(phenylamino)carbonyl]-amino]sulfonyl]amino]] | 182 |  |
| Carbamic Acid, [[[5-[[(3,4-difluorophenyl)amino]carbonyl]-2-methoxyphenyl]amino]sulfonyl]methyl-, Ethyl ester [Example 69] | 154 |  |
